# Experimental data from patent publication US20240315989A1 (priority 2021, published 2024).
# “And” between values parts separate entries of the source, which are not always exact repeats. Identical values can stand only once. Like-named read-outs stand apart in the source and are kept apart here.
# Assays:
# [1] = system: COVID-19; settings: follow-up questionnaire
# [2] = system: HEK293T cell lines expressing ACE2 and TMPRSS2; settings: FIG. 27; cited from earlier work
# [3] = system: COVID-19
# [4] = depending on formulation; cited from earlier work
# [5] = From the text: All serious and non-serious adverse events were reported to study personnel as per local regulatory requirements. Reportable adverse events included serious adverse events, adverse events resulting in study medication discontinuation, and adverse events assessed as possibly related to study medication.
# Because many patients who would ordinarily have been hospitalized were prevented from admission due to hospital over-capacity during peak waves, the composite endpoint addresses both hospitalization and a proxy for hospitalization, retention in a COVID-19 emergency hospital setting. This region of Brazil implemented hospital-like services in the emergency settings with 50-80 bed units providing services including multiday stays, oxygenation, and mechanical ventilation. […] Key secondary outcomes include viral clearance, time to clinical improvement, number of days with respiratory symptoms, time to hospitalization for any cause or due to COVID-19 progression, all-cause mortality and time to death from any causes, WHO clinical worsening scale score, days in hospital and on ventilator and adverse events, adverse reactions to the study medications, and the proportion of participants who are non-adherent with the study drugs.
# The TOGETHER trial is the largest placebo-controlled trial of COVID-19 interventions in the world. It currently evaluates drugs for pre-hospitalization.
# [6] = cited from earlier work
# [7] = system: COVID-19 (SARS-CoV-2 infection)
# [8] = system: experimental autoimmune encephalomyelitis (EAE); settings: cited from earlier work
# [9] = system: COVID-19 (SARS-CoV-2 infection); settings: cited from earlier work
# [10] = system: LPS-induced cytokine production; settings: human peripheral blood; cited from earlier work
# [11] = intent to treat analysis of 1649 participants
# [12] = pooled, fluvoxamine vs blinded placebo
# [13] = two randomized trials pooled, intent to treat
# [14] = Together, N = 741, MedDRA body system
# [15] = Intent to Treat Analysis, all randomized
# [16] = per protocol, fluvoxamine group
structure (smiles),measurement,setting,value
"COCCCC/C(=N\OCCN)c1ccc(C(F)(F)F)cc1.O=C(O)/C=C\C(=O)O [fluvoxamine, 5-methoxy-4′-(trifluoromethyl)valerophenone-(E)-O-(2-aminoethyl)oxime maleate (1:1)]","Ache in chest wall (ribs/sternum) present during the course of COVID-19, %",[1],(33%)
same,"Ache in chest wall (ribs/sternum) present within past 48 hours at follow-up, %",[1],(11%)
same,"Chest pain that worsens when taking a deep breath, present during the course of COVID-19, %",[1],(37%)
same,"Chest pain that worsens when taking a deep breath, present within past 48 hours at follow-up, %",[1],(17%)
same,"Chest pressure present during the course of COVID-19, %",[1],(54%)
same,"Chest pressure present within past 48 hours at time of follow-up, %",[1],(17%)
same,"Chest tightness present during the course of COVID-19, %",[1],(54%)
same,"Chest tightness present within past 48 hours at follow-up, %",[1],(17%)
same,"Pain deep inside the chest present during the course of COVID-19, %",[1],(31%)
same,"Pain deep inside the chest present within past 48 hours at follow-up, %",[1],(9%)
same,"Sharp chest pains present during the course of COVID-19, %",[1],(33%)
same,"Sharp chest pains present within past 48 hours at follow-up, %",[1],(13%)
same,HEK293T-ACE2-TMPRSS2 cell IC50,[2],4.579 µg/mL
same,reduction in hospitalizations,[3]; [11],Summary of the two randomized clinical trial data demonstrate a 25%
same,"reduction in progression to severe disease with hypoxia ≤92%, ER visit >6 hour (with hypoxia), or hospitalizations",[3]; [11],reduction in hospitalizations and 36% reduction in progression to severe
same,reduction in hospitalizations,"[3]; intent to treat, vs placebo",25%
same,Number needed to treat,[3]; pooled,approximately 20
same,"Hospitalization, Absolute Risk Reduction",[3]; [12],3.1%
same,"Mortality, Absolute Risk Reduction",[3]; [12],0.9%
same,"Progression to Severe COVID-19, Absolute Risk Reduction",[3]; [12],5.4%
same,"Hospitalization, %",[3]; [13],9.3%
same,"Hospitalization, n/N",[3]; [13],(76/821)
same,"Mortality, %",[3]; [13],2.1%
same,"Mortality, n/N",[3]; [13],(17/821)
same,"Progression to Severe COVID-19 (Hospitalization or ER Visit >6 hr or Hypoxia <92%), %",[3]; [13],9.6%
same,"Progression to Severe COVID-19, n/N",[3]; [13],(79/821)
same,half-life,[4],9 to 28 h
same,"Treatment emergent adverse event Grade 1, %","[5]; TOGETHER, fluvoxamine group",(3%)
same,"Treatment emergent adverse event Grade 1, n/N","[5]; TOGETHER, fluvoxamine group",20/741
same,"Treatment emergent adverse event Grade 2, %","[5]; TOGETHER, fluvoxamine group",(10%)
same,"Treatment emergent adverse event Grade 2, n/N","[5]; TOGETHER, fluvoxamine group",72/741
same,"Treatment emergent adverse event Grade 3, %","[5]; TOGETHER, fluvoxamine group",(5%)
same,"Treatment emergent adverse event Grade 3, n/N","[5]; TOGETHER, fluvoxamine group",38/741
same,"Treatment emergent adverse event Grade 4, %","[5]; TOGETHER, fluvoxamine group",(3%)
same,"Treatment emergent adverse event Grade 4, n/N","[5]; TOGETHER, fluvoxamine group",21/741
same,"Treatment emergent adverse event Grade 5, %","[5]; TOGETHER, fluvoxamine group",(2%)
same,"Treatment emergent adverse event Grade 5, n/N","[5]; TOGETHER, fluvoxamine group",18/741
same,"Cardiac disorders, % of AEs",[5]; [14],(0.6%)
same,"Cardiac disorders, number of AEs",[5]; [14],1
same,"Ear and labyrinth disorders, % of AEs",[5]; [14],(0.6%)
same,"Ear and labyrinth disorders, number of AEs",[5]; [14],1
same,"Gastrointestinal disorders, % of AEs",[5]; [14],(9.2%)
same,"Gastrointestinal disorders, number of AEs",[5]; [14],16
same,"Hepatobiliary disorders, % of AEs",[5]; [14],(0%)
same,"Hepatobiliary disorders, number of AEs",[5]; [14],0
same,"Infections and infestations, % of AEs",[5]; [14],(49%)
same,"Infections and infestations, number of AEs",[5]; [14],85
same,"Metabolism and nutrition disorders, % of AEs",[5]; [14],(2.3%)
same,"Metabolism and nutrition disorders, number of AEs",[5]; [14],4
same,"Musculoskeletal and connective tissue disorders, % of AEs",[5]; [14],(2.3%)
same,"Musculoskeletal and connective tissue disorders, number of AEs",[5]; [14],4
same,"Nervous system disorders, % of AEs",[5]; [14],(1.7%)
same,"Nervous system disorders, number of AEs",[5]; [14],3
same,"Psychiatric disorders, % of AEs",[5]; [14],(2.9%)
same,"Psychiatric disorders, number of AEs",[5]; [14],5
same,"Renal and urinary disorders, % of AEs",[5]; [14],(0.6%)
same,"Renal and urinary disorders, number of AEs",[5]; [14],1
same,"Reproductive system and breast disorders, % of AEs",[5]; [14],(0.6%)
same,"Reproductive system and breast disorders, number of AEs",[5]; [14],1
same,"Respiratory, thoracic and mediastinal disorders, % of AEs",[5]; [14],(6.3%)
same,"Respiratory, thoracic and mediastinal disorders, number of AEs",[5]; [14],11
same,"Skin and subcutaneous tissue disorders, % of AEs",[5]; [14],(0%)
same,"Skin and subcutaneous tissue disorders, number of AEs",[5]; [14],0
same,"Vascular disorders, % of AEs",[5]; [14],(1.1%)
same,"Vascular disorders, number of AEs",[5]; [14],2
same,N individual AEs,"[5]; Together, N = 741 participants",174
same,"Participants who stopped owing to issues of tolerability, No.",[5]; of 741,84
same,volume of distribution [V/F],[6]; one-compartment model,928 L
same,Free fraction in plasma,[6]; unbound to plasma proteins,20%
same,"Hospitalization or extended emergency room visit due to COVID-19, HR",[7],0.77
same,"Patients with any interaction with a COVID-19 emergency setting, No.",[7],180
same,"Period of hospitalization, estimated treatment effect",[7],1.23
same,"Progression to severe COVID (FDA categorization), % of patients",[7],10.1%
same,"Proportion of primary outcome events, %",[7],3.6%
same,"Time on mechanical ventilator, estimated treatment effect",[7],1.03
same,"Primary outcome events (retention in COVID-19 emergency setting >6 h or transfer to tertiary hospital), No. of patients",[7]; 100 mg,79
same,"Proportion of primary outcome events, %",[7]; 24 h,10.5%
same,Probability of superiority (event rate lower than placebo),[7]; ITT population,99.8%
same,"Primary outcome events, % of patients","[7]; ITT, of 741, 28 days",11%
same,"Primary outcome events, n/N",[7]; [15],(79/741)
same,"Proportion of primary outcome events (retention in COVID-19 emergency setting >6 hours or transfer to tertiary hospital), %",[7]; [15],10.7%
same,"Primary outcome events (retention in a COVID-19 emergency setting or transfer to tertiary hospital due to COVID-19), %","[7]; Intention-to-treat analysis, N 741",(11%)
same,"Primary outcome events, n/N","[7]; Modified Intent to Treat Analysis, received ≥24 hours of study medicine",(78/740)
same,"Primary outcome events (retention in a COVID-19 emergency setting or transfer to tertiary hospital due to COVID-19), %","[7]; Modified intention-to-treat analysis, N 740",(11%)
same,"Primary outcome events, n/N","[7]; Per Protocol, received 80% of study medicine prior to any deterioration",(20/548)
same,"All-cause hospitalization, n/N","[7]; TOGETHER, fluvoxamine group",76/741
same,"Death, intention to treat, %","[7]; TOGETHER, fluvoxamine group",(2%)
same,"Death, intention to treat, n/N","[7]; TOGETHER, fluvoxamine group",17/741
same,"Hospitalized for COVID, n/N","[7]; TOGETHER, fluvoxamine group",75/741
same,Probability that event rate was lower than placebo,[7]; mITT population,99.7%
same,Time to death,"[7]; median, fluvoxamine group",17 days
same,"Death, per protocol, %",[7]; [16],(<1%)
same,"Death, per protocol, n/N",[7]; [16],1/548
same,"Deaths, No.",[7]; per-protocol population,one
same,Reduction in risk of death (mortality),"[7]; per-protocol, took at least 80% of pills",91%
same,"Deaths, No.",[7]; primary intention-to-treat analysis,17
same,Number needed to treat,[7]; primary outcome,20
same,"Hospitalization or extended emergency room visit due to COVID-19, n_Fluvoxamine",[7]; subgroup Age <=50,23
same,"Hospitalization or extended emergency room visit due to COVID-19, HR","[7]; subgroup Age <=50, vs placebo",0.57
same,"Hospitalization or extended emergency room visit due to COVID-19, HR","[7]; subgroup Age >50, vs placebo",0.67
same,"Hospitalization or extended emergency room visit due to COVID-19, n_Fluvoxamine",[7]; subgroup BMI (Kg/m^2) >30,44
same,"Hospitalization or extended emergency room visit due to COVID-19, HR","[7]; subgroup BMI (Kg/m^2) >30, vs placebo",0.64
same,"Hospitalization or extended emergency room visit due to COVID-19, HR","[7]; subgroup Cardiovascular disease N, vs placebo",0.67
same,"Hospitalization or extended emergency room visit due to COVID-19, n_Fluvoxamine",[7]; subgroup Cardiovascular disease Y,0
same,"Hospitalization or extended emergency room visit due to COVID-19, n_Fluvoxamine",[7]; subgroup Chronic kidney disease N,78
same,"Hospitalization or extended emergency room visit due to COVID-19, n_Fluvoxamine",[7]; subgroup Chronic kidney disease Y,1
same,"Hospitalization or extended emergency room visit due to COVID-19, n_Fluvoxamine",[7]; subgroup Sex Female,28
same,"Hospitalization or extended emergency room visit due to COVID-19, n_Fluvoxamine",[7]; subgroup Sex Male,51
same,"Hospitalization or extended emergency room visit due to COVID-19, HR","[7]; subgroup Sex Male, vs placebo",0.80
same,"Hospitalization or extended emergency room visit due to COVID-19, HR","[7]; subgroup Smoking status Current, vs placebo",0.80
same,"Hospitalization or extended emergency room visit due to COVID-19, n_Fluvoxamine",[7]; subgroup Smoking status Former,10
same,"Hospitalization or extended emergency room visit due to COVID-19, HR","[7]; subgroup Smoking status Former, vs placebo",0.46
same,"Hospitalization or extended emergency room visit due to COVID-19, n_Fluvoxamine",[7]; subgroup Time from onset of symptoms 0-3 days,30
same,"Time to death, estimated treatment effect","[7]; unadjusted hazard ratio, fluvoxamine vs placebo",0.80
same,"Death, intention to treat, estimated treatment effect","[7]; unadjusted odds ratio, fluvoxamine vs placebo",0.69
same,Severity of EAE,"[8]; rats, also when treatment began 12 days post-induction",reduces the severity
same,IFN-γ serum levels,[8]; vs untreated EAE rats,decrease
same,IL-4 serum levels,[8]; vs untreated EAE rats,increase
same,Incidence of hospitalization,"[9]; 50 mg twice daily, 14 days",0%
same,"Patients hospitalized, number of 65",[9]; 14 days,no patients and 0 of 65
same,"Patients hospitalized, number of 65","[9]; 14 days, listed as FLV",0/65
same,Persistent residual / ongoing symptoms at 14 days,[9]; Day 14,0%
same,"Persons with persistent residual / ongoing symptoms at 14 days, number of 65",[9]; Day 14,0/65 and zero
same,"Persons with persistent residual / ongoing symptoms at 14 days, number of 65","[9]; Day 14, listed as FLV",0/65
same,LPS-induced cytokine production by human cells,[10],reduce LPS-induced cytokine production
